Measured values reported in article PMC11822212, “High-throughput screening identifies Aurora kinase B as a critical therapeutic target for Merkel cell carcinoma” (Nature Communications, 2025).
“And” between values parts separate entries of the source, which are not always exact repeats. Equal values may be shown once. Where a name gives a salt, the structure may show the parent alone. Read-outs that look alike come from different tables or passages of the source.

Columns and labels:
Assay in all cases: qHTS cell viability (CellTiter-Glo, 72 h; primary and follow-up small molecule screen)
Type in all cases: cell-based, human
[1] = test system: MCC26 cells (VN-MCC)
[2] = test system: MKL-2 cells (VP-MCC)
[3] = test system: UISO cells (VN-MCC)
[4] = test system: WAGA cells (VP-MCC)
[5] = test system: MCC13 cells (VN-MCC)
[6] = test system: MKL-1 cells (VP-MCC)
[7] = follow-up screen, MCC26, replicate 1
[8] = follow-up screen, MCC26, replicate 2
[9] = follow-up screen, MCC26, replicate 3
[10] = follow-up screen, MKL-2, replicate 1
[11] = follow-up screen, MKL-2, replicate 2
[12] = follow-up screen, MKL-2, replicate 3
[13] = follow-up screen, UISO, replicate 1
[14] = follow-up screen, UISO, replicate 2
[15] = follow-up screen, UISO, replicate 3
[16] = follow-up screen, WAGA, replicate 1
[17] = follow-up screen, WAGA, replicate 2
[18] = follow-up screen, WAGA, replicate 3
[19] = follow-up screen, MCC13, replicate 1
[20] = follow-up screen, MCC13, replicate 2
[21] = follow-up screen, MCC13, replicate 3
[22] = follow-up screen, MKL-1, replicate 1
[23] = follow-up screen, MKL-1, replicate 2
[24] = follow-up screen, MKL-1, replicate 3

Structure (SMILES) | Area under the dose-response curve (AUC) MCC26 Replicate 1 [1, 7] | Area under the dose-response curve (AUC) MCC26 Replicate 2 [1, 8] | Area under the dose-response curve (AUC) MCC26 Replicate 3 [1, 9] | Area under the dose-response curve (AUC) MKL-2 Replicate 1 [2, 10] | Area under the dose-response curve (AUC) MKL-2 Replicate 2 [2, 11] | Area under the dose-response curve (AUC) MKL-2 Replicate 3 [2, 12] | Area under the dose-response curve (AUC) UISO Replicate 1 [3, 13] | Area under the dose-response curve (AUC) UISO Replicate 2 [3, 14] | Area under the dose-response curve (AUC) UISO Replicate 3 [3, 15] | Area under the dose-response curve (AUC) WAGA Replicate 1 [4, 16] | Area under the dose-response curve (AUC) WAGA Replicate 2 [4, 17] | Area under the dose-response curve (AUC) WAGA Replicate 3 [4, 18] | Area under the dose-response curve (AUC) MCC13 Replicate 1 [5, 19] | Area under the dose-response curve (AUC) MCC13 Replicate 2 [5, 20] | Area under the dose-response curve (AUC) MCC13 Replicate 3 [5, 21] | Area under the dose-response curve (AUC) MKL-1 Replicate 1 [6, 22] | Area under the dose-response curve (AUC) MKL-1 Replicate 2 [6, 23] | Area under the dose-response curve (AUC) MKL-1 Replicate 3 [6, 24] | also measured
CCN(CCO)CCCC(C)Nc1ccnc2cc(Cl)ccc12 (stereo not drawn) [Hydroxychloroquine sulfate] | 423.8 | 423.8 | 468.3 | 454.2 | 416.6 | 490.5 | 504.6 | 448.6 | 420.1 | 540.2 | 519.3 | 458.7 | 495.6 | 487.6 | 467.0 | 541.8 | 486.3 | 499.9 | –
CC(=O)[C@]1(O)Cc2c(O)c3c(c(O)c2[C@@H](O[C@H]2C[C@H](N)[C@H](O)[C@H](C)O2)C1)C(=O)c1ccccc1C3=O [Idarubicin hydrochloride] | 293.6 | 292.8 | 227.6 | 203.6 | 200.3 | 265.0 | 184.7 | 180.9 | 186.4 | 205.3 | 258.0 | 233.3 | 321.5 | 353.4 | 356.2 | 222.7 | 242.3 | 233.3 | –
Oc1ccc(C2=Cc3ccc(O)cc3OC2)cc1 [Idronoxil] | – | – | – | – | – | – | – | – | – | – | – | – | – | – | – | – | – | – | Area under the dose-response curve (AUC) [1]: 408.0 and 413.9 and 448.0; Area under the dose-response curve (AUC) [2]: 351.5 and 302.3 and 331.4; Area under the dose-response curve (AUC) [3]: 422.5 and 447.1 and 401.0; Area under the dose-response curve (AUC) [4]: 395.2 and 366.0 and 386.6; Area under the dose-response curve (AUC) [5]: 415.6 and 455.9 and 456.9; Area under the dose-response curve (AUC) [6]: 285.6 and 303.3 and 334.8
CN(C(Cc1ccc(O[S+](=O)([O-])c2cccc3cnccc23)cc1)C(=O)N1CCN(c2ccccc2)CC1)[S+](=O)([O-])c1cccc2cnccc12 (stereo not drawn) [KN-62] | 447.5 | 438.4 | 461.3 | 465.4 | 466.3 | 472.5 | 473.7 | 471.7 | 409.6 | 521.5 | 471.3 | 468.9 | 505.2 | 474.1 | 504.9 | 492.0 | 481.7 | 479.5 | –
O=c1cc(-c2ccc(O)c(O)c2)oc2cc(O)cc(O)c12 [Luteolin] | 469.7 | 436.1 | 492.5 | 469.9 | 500.3 | 460.5 | 505.5 | 498.3 | 457.3 | 542.7 | 525.5 | 485.9 | 522.6 | 523.6 | 493.6 | 484.8 | 451.1 | 471.1 | –
CN(C)c1ccc(C(=C2C=CC(=[N+](C)C)C=C2)c2ccccc2)cc1.CN(C)c1ccc(C(=C2C=CC(=[N+](C)C)C=C2)c2ccccc2)cc1.O=C(O)C(=O)O.O=C([O-])C(=O)O.O=C([O-])C(=O)O [Malachite green oxalate] | – | – | – | – | – | – | – | – | – | – | – | – | – | – | – | – | – | – | Area under the dose-response curve (AUC) MCC26 Replicate 1 [1]: 302.0; Area under the dose-response curve (AUC) MCC26 Replicate 2 [1]: 333.8; Area under the dose-response curve (AUC) MCC26 Replicate 3 [1]: 303.0; Area under the dose-response curve (AUC) MKL-2 Replicate 1 [2]: 272.5; Area under the dose-response curve (AUC) MKL-2 Replicate 2 [2]: 267.6; Area under the dose-response curve (AUC) MKL-2 Replicate 3 [2]: 282.8; Area under the dose-response curve (AUC) UISO Replicate 1 [3]: 285.6; Area under the dose-response curve (AUC) UISO Replicate 2 [3]: 315.1; Area under the dose-response curve (AUC) UISO Replicate 3 [3]: 271.1; Area under the dose-response curve (AUC) WAGA Replicate 1 [4]: 353.3; Area under the dose-response curve (AUC) WAGA Replicate 2 [4]: 347.4; Area under the dose-response curve (AUC) WAGA Replicate 3 [4]: 369.9; Area under the dose-response curve (AUC) MCC13 Replicate 1 [5]: 284.7; Area under the dose-response curve (AUC) MCC13 Replicate 2 [5]: 297.6; Area under the dose-response curve (AUC) MCC13 Replicate 3 [5]: 312.3; Area under the dose-response curve (AUC) MKL-1 Replicate 1 [6]: 266.3; Area under the dose-response curve (AUC) MKL-1 Replicate 2 [6]: 258.0; Area under the dose-response curve (AUC) MKL-1 Replicate 3 [6]: 280.5
CN(C)c1ccc(C(=C2C=CC(=[N+](C)C)C=C2)c2ccc(N(C)C)cc2)cc1.[Cl-] [Methylrosaniline chloride] | – | – | – | – | – | – | – | – | – | – | – | – | – | – | – | – | – | – | Area under the dose-response curve (AUC) MCC26 Replicate 1 [1]: 379.4; Area under the dose-response curve (AUC) MCC26 Replicate 2 [1]: 341.7; Area under the dose-response curve (AUC) MCC26 Replicate 3 [1]: 374.7; Area under the dose-response curve (AUC) MKL-2 Replicate 1 [2]: 279.9; Area under the dose-response curve (AUC) MKL-2 Replicate 2 [2]: 290.8; Area under the dose-response curve (AUC) MKL-2 Replicate 3 [2]: 309.2; Area under the dose-response curve (AUC) UISO Replicate 1 [3]: 320.8; Area under the dose-response curve (AUC) UISO Replicate 2 [3]: 340.7; Area under the dose-response curve (AUC) UISO Replicate 3 [3]: 296.1; Area under the dose-response curve (AUC) WAGA Replicate 1 [4]: 370.0; Area under the dose-response curve (AUC) WAGA Replicate 2 [4]: 348.5; Area under the dose-response curve (AUC) WAGA Replicate 3 [4]: 356.4; Area under the dose-response curve (AUC) MCC13 Replicate 1 [5]: 337.3; Area under the dose-response curve (AUC) MCC13 Replicate 2 [5]: 353.3; Area under the dose-response curve (AUC) MCC13 Replicate 3 [5]: 322.2; Area under the dose-response curve (AUC) MKL-1 Replicate 1 [6]: 316.1; Area under the dose-response curve (AUC) MKL-1 Replicate 2 [6]: 287.7; Area under the dose-response curve (AUC) MKL-1 Replicate 3 [6]: 301.6
